Where “and” joins values, the source holds several entries; their conditions need not be identical. Equal values may be shown once.
Tests used:
[1] = target: T1, hTA1 (Homo sapiens, UniProt Q96RJ0); test: GloSensor cAMP accumulation assay, concentration response, wild-type hTA1 in transfected HEK293T cells; format: cell-based; conditions: log[Compound], replicate wells;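 note: luminescence read after 30 min compound exposure at room temperature in cells preloaded with D-Luciferin, reflecting Gs-driven cAMP rise, efficacy scaled to the maximal β-PEA response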
T1 construct: expressed in transfected cells; host or cells: HEK293T
T1 sequence (Q96RJ0 1-339): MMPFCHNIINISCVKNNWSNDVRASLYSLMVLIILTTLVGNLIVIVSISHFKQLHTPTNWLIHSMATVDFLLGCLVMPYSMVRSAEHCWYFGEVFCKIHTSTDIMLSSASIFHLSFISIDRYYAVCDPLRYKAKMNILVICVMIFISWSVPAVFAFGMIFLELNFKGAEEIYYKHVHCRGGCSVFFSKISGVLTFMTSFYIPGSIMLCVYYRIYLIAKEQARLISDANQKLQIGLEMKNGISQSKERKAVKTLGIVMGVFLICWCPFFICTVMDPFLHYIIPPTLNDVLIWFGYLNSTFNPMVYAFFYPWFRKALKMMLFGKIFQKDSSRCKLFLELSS

[2] = target: T1, hTA1; test: Screen of 89 aminergic compounds at 10 µM, cAMP accumulation in HEK293T cells; format: cell-based; conditions: 10 µM of compound; HEK293T; threshold log2-fold change of 2;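 note: HEK293T cells co-transfected with hTA1 and GloSensor cAMP reporter, cAMP accumulation detected by luminescence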

| SMILES | Normalized Luminescence Counts for WT hTA1 ([1]; M = -5) | Normalized Luminescence Counts for WT hTA1 ([1]; M = -5.522) | Normalized Luminescence Counts for WT hTA1 ([1]; M = -6) | Normalized Luminescence Counts for WT hTA1 ([1]; M = -6.522) | Normalized Luminescence Counts for WT hTA1 ([1]; M = -7) | Normalized Luminescence Counts for WT hTA1 ([1]; M = -7.522) | Normalized Luminescence Counts for WT hTA1 ([1]; M = -8) | Normalized Luminescence Counts for WT hTA1 ([1]; M = -8.522) | Normalized Luminescence Counts for WT hTA1 ([1]; M = -9) | Normalized Luminescence Counts for WT hTA1 ([1]; M = -9.522) | Normalized Luminescence Counts for WT hTA1 ([1]; M = -10) | Normalized Luminescence Counts for WT hTA1 ([1]; M = -10.522) | Normalized Luminescence Counts for WT hTA1 ([1]; M = -11) | Normalized Luminescence Counts for WT hTA1 ([1]; M = -11.522) | Normalized Luminescence Counts for WT hTA1 ([1]; M = -12) | Normalized Luminescence Counts for WT hTA1 ([1]; M = -12.522) | increase of signal over DMSO-treated controls (hTA1 activation) [2] [fold] |
| --- | --- | --- | --- | --- | --- | --- | --- | --- | --- | --- | --- | --- | --- | --- | --- | --- | --- |
| O=C1Nc2cc(Cl)c(Cl)cc2N2CCNCC12 (stereo not shown) [WAY161503] | 13.2601 and 18.8261 and 16.7307 and 26.6058 and 24.591 and 22.5763 | 7.105 and 8.152 and 8.742 and 7.88 and 6.893 and 7.327 | 0.3926 and 0.6218 and 0.4581 and 2.389 and 1.639 and 1.7967 | -0.0003118 and -0.03305 and -0.426 and 0.5325 and 0.2955 and 0.6511 | -0.426 and -1.114 and -0.7861 and -0.2575 (2×) and -0.3366 | -0.8516 and -1.277 and -0.6879 and -0.3366 and -0.4946 and -1.166 | -0.09854 and -0.3605 (2×) and 0.09799 and 0.6511 and -0.3761 | -0.3605 and -0.7206 and -0.3932 and 1.165 and 1.046 and 0.6116 | -1.048 and -0.2622 and -0.8516 and -0.06003 and 0.2165 and 0.414 | -1.277 and -0.8516 and -0.7861 and 0.6116 and 0.01898 and -0.6526 | -0.7206 and -0.7534 and -0.3605 and -0.8106 and -0.1785 and -1.087 | -0.5897 and -0.09854 and -0.6224 and 0.01898 and -0.3761 and -0.7316 | 0.09791 and 0.03243 and -0.6224 and -0.2971 and 0.5325 and 0.3745 | -0.0003118 and -0.5242 and 0.06517 and -0.09953 and -0.4156 and 0.177 | -0.3277 and -0.295 and -0.8189 and 0.4535 and -0.2971 and -0.4156 | -0.3932 and -0.5897 (2×) and 0.4535 and -0.4551 and 0.09799 | ≥ 4 |
| c1ccc2nc(N3CCNCC3)ccc2c1 [quipazine] | 4.714 and 4.976 and 5.959 | 3.012 and 2.619 and 2.979 | 0.6873 and 0.2616 and 0.2944 | 0.06517 and 0.4908 and -0.09854 | 0.03243 and 0.2289 and -0.5569 | -0.0003118 and -0.1313 and -0.0658 | 0.2944 and -0.3605 and 0.3598 | -0.1968 and 0.4581 and 0.1307 | -0.2295 and -0.4587 and -0.5242 | -0.3277 and -0.3605 and -0.6224 | -0.164 and -0.2622 and 0.3926 | 0.3271 and -1.0153 and 0.3926 | 0.3598 and 0.06517 and 0.6218 | 0.4581 and -0.3277 and -0.1968 | -0.164 and 0.06517 and -0.09854 | 0.589 and 1.473 and 0.2944 | ≥ 4 |
| Cc1cc(C(C)(C)C)c(O)c(C)c1CC1=NCCN1 [oxymetazoline] | 35.3607 and 39.1587 and 34.0837 and 3.969 and 2.152 and 2.824 | 27.6664 and 21.0198 and 25.8983 and 1.56 and 0.6511 and 0.8091 | 14.0131 and 12.0159 and 14.9299 and -0.5736 and -1.127 and -1.4822 | 3.994 and 5.664 and 5.697 and -1.838 and -1.68 and -1.798 | 1.539 and 1.637 and 2.128 and -1.4822 and -2.075 and -1.719 | -0.1968 and -0.426 and -0.09854 and -2.035 and -2.2723 and -2.391 | 0.03243 and -0.0003118 and 0.1634 and -1.166 and -0.9291 and -1.403 | -0.7206 and -0.5569 and -0.1313 and -1.364 and -1.522 and -1.956 | -0.7534 and -0.7861 and -0.0003118 and -1.403 and -1.798 and -2.035 | -0.7206 and -0.4914 and -0.5569 and -1.4822 and -1.64 and -1.838 | -1.31 and -1.0153 and -0.5242 and -2.075 and -1.4427 and -2.3118 | -0.1313 and -0.7206 and -0.7861 and -2.075 and -1.4822 and -2.43 | -0.03305 and -0.6224 and 0.03243 and -1.522 and -0.4551 and -2.114 | -0.4914 and -0.4587 and -0.5242 and -1.403 and -1.048 and -2.075 | -0.5897 and -0.6224 and -0.3932 and -2.035 and -1.4427 and -1.956 | 0.09791 and 0.06517 and -0.7861 and -1.64 and -1.127 and -0.8106 | ≥ 4 |
| C[C@H](N)Cn1ccc2cc(F)c(Cl)cc21 [Ro600175] | 52.641 and 46.7523 and 44.37 and 49.7206 and 44.9424 and 49.1048 | 20.1192 and 21.0025 and 20.1995 and 33.6184 and 30.3798 and 33.3903 | 10.3493 and 9.439 and 10.7776 and 14.1863 and 14.9846 and 14.3574 | 3.39 and 1.971 and 3.3096 and 6.785 and 7.013 and 6.8993 | 0.6865 and 0.9274 and 0.7668 and 2.03 and 1.973 and 1.7904 | -0.2504 and 0.2582 and -0.2236 and 0.6842 and 0.6044 and 0.3991 | 0.5258 and 0.5794 and 1.275 and 0.4333 and 0.3763 and 0.3649 | 0.4991 and -0.1166 and 0.392 and 0.03421 and 0.3649 and 0.2509 | 0.01728 and 0.7935 and -0.1969 and 0.1026 and 0.3877 and 0.2737 | 0.07081 and -0.08979 and -0.1166 and -0.1482 and -0.114 and 0.07983 | 0.1243 and -0.009489 and 0.4188 and -0.1825 and -0.0114 and -0.03421 | -0.06302 and -0.3842 and 0.1779 and -0.2053 and 0 and -0.05702 | 0.6329 and 0.3117 and 0.7132 and -0.06842 and 0.4447 and 0.2509 | 0.4188 and 0.7668 and 0.8738 and 0.4676 and 0.2509 and 0.707 | 0.5258 and 0.5526 and 1.302 and -0.114 and 0.2737 and 0.1368 | 0.2046 and 0.1779 and 0.2849 and 0.2623 and 0.4219 and 0.2395 | ≥ 4 |
| CNC[C@H](O)c1ccc(O)c(O)c1 [epinephrine] | -0.5341 and -0.7316 and 0.493 | -0.1785 and 2.231 and -0.218 | 0.4535 and -0.139 | 0.493 and 1.046 and -0.7316 | -1.759 and -1.996 and -0.9686 | -2.549 and -2.2723 and -2.114 | -2.035 and -0.8106 and -2.154 | -1.917 and -1.68 and -2.233 | -2.391 and -2.075 and -2.628 | -2.588 and -2.667 and -2.549 | -2.865 and -2.47 and -2.391 | -2.628 and -2.193 and -2.549 | -2.3118 and -2.193 and -2.114 | -2.391 and -1.4427 and -1.956 | -2.233 and -1.4427 and -1.917 | -2.075 and -2.114 and -1.798 | ≥ 4 |

Source: publication PMC10762035, “Molecular basis of human trace amine-associated receptor 1 activation” (Nature Communications, 2024)
